The results in this text go back to patent publication US8067411B2, “Compounds” (AstraZeneca AB, priority 2006, dated 2011).

For the assay, the target named is T1, Recombinant human TLR7 (Homo sapiens, UniProt Q9NYK1).
T1 construct: expressed in transfected cells; host or cells: HEK293 cell line stably expressing the pNiFty2-SEAP reporter plasmid; TLR7 in pUNO vector, blasticidin selection
T1 sequence (Q9NYK1 27-1049): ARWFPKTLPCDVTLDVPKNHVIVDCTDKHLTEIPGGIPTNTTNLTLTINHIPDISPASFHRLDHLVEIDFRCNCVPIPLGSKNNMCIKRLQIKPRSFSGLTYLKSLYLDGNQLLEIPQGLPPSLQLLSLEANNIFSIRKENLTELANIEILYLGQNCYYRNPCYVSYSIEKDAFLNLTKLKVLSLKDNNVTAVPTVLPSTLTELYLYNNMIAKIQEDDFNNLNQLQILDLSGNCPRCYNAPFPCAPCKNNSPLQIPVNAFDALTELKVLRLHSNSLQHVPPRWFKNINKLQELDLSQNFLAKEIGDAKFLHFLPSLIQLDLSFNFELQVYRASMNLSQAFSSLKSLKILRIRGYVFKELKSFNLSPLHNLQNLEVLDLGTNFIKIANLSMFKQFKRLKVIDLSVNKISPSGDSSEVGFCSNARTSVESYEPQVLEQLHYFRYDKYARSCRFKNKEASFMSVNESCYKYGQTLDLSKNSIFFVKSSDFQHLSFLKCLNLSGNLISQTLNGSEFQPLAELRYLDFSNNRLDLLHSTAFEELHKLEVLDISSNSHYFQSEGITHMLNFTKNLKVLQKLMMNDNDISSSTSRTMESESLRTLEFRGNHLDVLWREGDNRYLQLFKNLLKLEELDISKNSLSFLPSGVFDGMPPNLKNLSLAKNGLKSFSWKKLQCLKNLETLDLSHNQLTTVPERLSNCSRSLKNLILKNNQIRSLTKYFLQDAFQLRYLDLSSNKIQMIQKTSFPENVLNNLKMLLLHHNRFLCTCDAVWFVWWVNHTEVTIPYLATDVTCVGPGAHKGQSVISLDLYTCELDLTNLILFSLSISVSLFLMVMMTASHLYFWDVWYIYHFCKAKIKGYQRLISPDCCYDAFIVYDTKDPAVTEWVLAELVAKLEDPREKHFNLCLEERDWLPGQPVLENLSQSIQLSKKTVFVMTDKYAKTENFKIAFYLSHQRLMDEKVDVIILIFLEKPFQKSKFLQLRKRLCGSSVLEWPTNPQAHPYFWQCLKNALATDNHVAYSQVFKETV
In words: Human TLR7 assay (SEAP reporter in HEK293 cells). Format: cell-based. Particulars: log of the minimal effective concentration of compound to induce SEAP release; HEK293 pNiFty2-SEAP reporter cell line, overnight incubation at 37° C., 0.1% (v/v) DMSO. The text has this: Recombinant human TLR7 was stably expressed in a HEK293 cell line already stably expressing the pNiFty2-SEAP reporter plasmid; integration of the reporter gene was maintained by selection with the antibiotic zeocin. The most common variant sequence of human TLR7 (represented by the EMBL sequence AF240467) was cloned into the mammalian cell expression vector pUNO and transfected into this reporter cell-line. Transfectants with stable expression were selected using the antibiotic blasticidin. In this reporter cell-line, expression of secreted alkaline phosphatase (SEAP) is controlled by an NFkB/ELAM-1 composite promoter comprising five NFkB sites combined with the proximal ELAM-1 promoter. TLR signaling leads to the translocation of NFkB and activation of the promoter results in expression of the SEAP gene. TLR7-specific activation was assessed by determining the level of SEAP produced following overnight incubation of the cells at 37° C. with the standard compound in the presence of 0.1% (v/v) dimethylsulfoxide (DMSO). Concentration dependent induction of SEAP production by compounds was expressed as the log of the minimal effective concentration of compound to induce SEAP release (pMEC).
`CCCCOc1nc(N)c2[nH]c(=O)n(CCCN(CCCN3CCOCC3)Cc3ccc(SC)cc3)c2n1` [Example 8, 6-Amino-2-butoxy-9-{3-[[4-(methylthio)benzyl] (3-morpholin-4-ylpropyl)amino]propyl}-7,9-dihydro-8H-purin-8-one]: the pMEC is listed as 7.2.

Regarding `CCCCOc1nc(N)c2[nH]c(=O)n(CCCN(CCCN3CCOCC3)Cc3cc(OC)cc(OC)c3)c2n1` [Example 12, 6-Amino-2-butoxy-9-{3-[(3,5-dimethoxybenzyl)(3-morpholin-4-ylpropyl)amino]propyl}-7,9-dihydro-8H-purin-8-one], the pMEC is given as above 7.7.

Regarding `CCCCOc1nc(N)c2[nH]c(=O)n(CCCN(CCCN3CCOCC3)Cc3ccc(-n4cncn4)cc3)c2n1` [Example 16, 6-Amino-2-butoxy-9-(3-{(3-morpholin-4-ylpropyl)[4-(1H-1,2,4-triazol-1-yl)benzyl]amino}propyl)-7,9-dihydro-8H-purin-8-one], the pMEC is given as 7.4.
